pIC50: −log10 of the molar value.
molecular target: Replicase polyprotein 1ab (Severe acute respiratory syndrome coronavirus 2, UniProt P0DTD1); test: Inhibition of recombinant SARS-CoV-2 Main protease using TAMRA-SITSAVLQSGFRKMK-DABCYL-OH fluorogenic peptide as substrate preincubated or 30 mins followed by substrate addition by FRET assay

| Structure (SMILES) | pIC50 |
| --- | --- |
| CC(C)C(=O)N[C@H](C(=O)N1C[C@H]2[C@@H]([C@H]1C(=O)N[C@H](C#N)C[C@@H]1CCNC1=O)C2(C)C)C(C)(C)C | > 7.00 |
| COc1cccc2[nH]c(C(=O)N3C[C@@H]4CCC[C@@H]4[C@H]3C(=O)N[C@@H](C[C@@H]3CCNC3=O)C(=O)CCl)cc12 | 7.00 |
| CC(C)(C)[C@H](NC(=O)Cc1ccccc1)C(=O)N1C[C@H]2[C@@H]([C@H]1C(=O)N[C@H](C#N)C[C@@H]1CCNC1=O)C2(C)C | > 7.00 |
| COc1cccc2[nH]c(C(=O)N3C[C@@H]4CCC[C@@H]4[C@H]3C(=O)N[C@@H](C[C@@H]3CCNC3=O)C(=O)C(=O)NC3CCCCC3)cc12 | > 7.00 |
| CC(=O)N[C@H](C(=O)N1C[C@H]2[C@@H]([C@H]1C(=O)N[C@H](C#N)C[C@@H]1CCNC1=O)C2(C)C)C(C)(C)C | > 7.00 |
| COc1cccc2[nH]c(C(=O)N3C[C@@H]4CCC[C@@H]4[C@H]3C(=O)N[C@H](C=O)C[C@@H]3CCNC3=O)cc12 | > 7.00 |
| COc1cccc2[nH]c(C(=O)N3C[C@@H]4CCC[C@@H]4[C@H]3C(=O)N[C@@H](C[C@@H]3CCNC3=O)C(=O)COC(=O)c3c(Cl)cccc3Cl)cc12 | > 7.00 |
| COc1cccc2[nH]c(C(=O)N3C[C@@H]4CCC[C@@H]4[C@H]3C(=O)N[C@@H](C[C@@H]3CCNC3=O)C(=O)CO)cc12 | 7.00 |
| CC1(C)[C@@H]2[C@@H](C(=O)N[C@H](C#N)C[C@@H]3CCNC3=O)N(C(=O)c3cc4c(OC(F)F)cccc4[nH]3)C[C@@H]21 | 7.00 |
| CCC(=O)N[C@H](C(=O)N1C[C@H]2[C@@H]([C@H]1C(=O)N[C@H](C#N)C[C@@H]1CCNC1=O)C2(C)C)C(C)(C)C | > 7.00 |
| N#C[C@H](C[C@@H]1CCNC1=O)NC(=O)[C@@H]1CCCN1C(=O)c1cc2c(OC(F)F)cccc2[nH]1 | < 6.00 |
| CC(C)(C)[C@H](NC(=O)C1CCCCC1)C(=O)N1C[C@H]2[C@@H]([C@H]1C(=O)N[C@H](C#N)C[C@@H]1CCNC1=O)C2(C)C | > 7.00 |
| CC(C)(C)C(=O)N[C@H](C(=O)N1C[C@H]2[C@@H]([C@H]1C(=O)N[C@H](C#N)C[C@@H]1CCNC1=O)C2(C)C)C(C)(C)C | > 7.00 |
